Assay results: patent publication US7410974B2, “Halogenated Quinazolinyl nitrofurans as antibacterial agents” (Ulysses Pharmaceutical Products, Inc., priority 2003, dated 2008)
In brackets after ≈: the same amount, converted by molar mass. Read-outs that look alike come from different tables or passages of the source.

Legend:
[1] = test system: E. coli ATCC 25922; assay: MIC broth microdilution (NCCLS); assay type: cell-based, Escherichia coli
Description: (§1) Minimal Inhibitory Concentration (MIC) Determination. Bacteria (primary strain panel, TABLE 1). Susceptibility tests were performed following the recommendations from the National Committee for Clinical Standards (NCCLS). The MICs were determined by a broth microdilution technique using a final volume of 100 μl of cation-adjusted Mueller Hinton Broth (MHBCA) and a bacterial inoculum of 10^5-10^6 Colony Forming Units (CFU)/ml. The inocula were verified and precisely determined by applying 10-μl drops of 10-fold dilutions onto Triptic Soy Agar plates. The CFU were counted after an incubation of 24 h at 35° C. Any experiment showing an inoculum that was more or less than 10^5-10^6 CFU/ml was rejected. Control antibiotics and test compounds were prepared at a concentration equivalent to 2-fold the highest desired final concentration. Compounds were then diluted directly in the 96-well microtiter plates by serial 2-fold dilutions using a multichannel pipette. Microtiter plates were incubated during 24 h at 35° C. and growth was recorded by using a microtiterplate reader at 650 nm as well as by visual observation. The MIC was defined as the lowest concentration of compound yielding no visible growth. […] Fastidious bacteria. The medium used for Listeria monocytogenes, Neisseria meningitidis, and Campylobacter jejuni was MHBCA containing 2% laked horse blood. The medium used for Haemophilus influenzae and Branhamella (Moraxella) catarrhalis was HTM as recommended by the NCCLS. Cultures of these fastidious bacteria were incubated at 35° C. in a 5% CO2 atmosphere. […] The medium used for Bacteroides fragilis was Wilkins Chalgren broth and growth was allowed under an anaerobic atmosphere at 35° C. for 48 hours.

[2] = test system: S. aureus ATCC 29213; assay: MIC broth microdilution (NCCLS); assay type: cell-based, Staphylococcus aureus
Description: as §1

[3] = test system: S. epidermidis ATCC 12228; assay: MIC broth microdilution (NCCLS); assay type: cell-based, Staphylococcus epidermidis
Description: as §1

[4] = test system: S. saprophyticus ATCC 15305; assay: MIC broth microdilution (NCCLS); assay type: cell-based, Staphylococcus saprophyticus
Description: as §1

[5] = test system: E. faecium ATCC 35667; assay: MIC broth microdilution (NCCLS); assay type: cell-based, Enterococcus faecium
Description: as §1

[6] = test system: A. baumannii ATCC 19606; assay: MIC broth microdilution (NCCLS); assay type: cell-based, Acinetobacter baumannii
Description: as §1

[7] = test system: E. faecalis ATCC 29212; assay: MIC broth microdilution (NCCLS); assay type: cell-based, Enterococcus faecalis
Description: as §1

[8] = test system: Y. enterocolytica ATCC 23715; assay: MIC broth microdilution (NCCLS); assay type: cell-based, Yersinia enterocolytica
Description: as §1

[9] = test system: MRSA strain Sa253c; assay: MIC broth microdilution, antibiotic resistant strain panel; assay type: cell-based, Staphylococcus aureus; settings: multi-resistant MRSA strain Sa253c
Description: as §1
(§2) Finally, compounds were also tested against populations of various clinical strains (antibiotic resistant strain panel, TABLE 1).

[10] = test system: MRSA strain Sa234c; assay: as above; assay type: cell-based, Staphylococcus aureus; settings: multi-resistant MRSA strain Sa234c
Description: as §1, §2

[11] = test system: MRSA strain Sa249c; assay: as above; assay type: cell-based, Staphylococcus aureus; settings: multi-resistant MRSA strain Sa249c
Description: as §1, §2

[12] = test system: MRSA strain Sa248c; assay: as above; assay type: cell-based, Staphylococcus aureus; settings: multi-resistant MRSA strain Sa248c
Description: as §1, §2

[13] = test system: MRSA strain Sa228c; assay: as above; assay type: cell-based, Staphylococcus aureus; settings: multi-resistant MRSA strain Sa228c
Description: as §1, §2

[14] = test system: MRSA strain Sa220c; assay: as above; assay type: cell-based, Staphylococcus aureus; settings: multi-resistant MRSA strain Sa220c
Description: as §1, §2

[15] = test system: MRSA strain Sa224c; assay: as above; assay type: cell-based, Staphylococcus aureus; settings: multi-resistant MRSA strain Sa224c
Description: as §1, §2

[16] = test system: MRSA strain Sa212c; assay: as above; assay type: cell-based, Staphylococcus aureus; settings: multi-resistant MRSA strain Sa212c
Description: as §1, §2

[17] = test system: MRSA strain Sa211c; assay: as above; assay type: cell-based, Staphylococcus aureus; settings: multi-resistant MRSA strain Sa211c
Description: as §1, §2

[18] = test system: S. aureus MRSA COL; assay: MIC broth microdilution (NCCLS); assay type: cell-based, Staphylococcus aureus
Description: as §1, with “hours. […]” for “hours.”

[19] = test system: S. typhimurium ATCC14028; assay: MIC broth microdilution (NCCLS); assay type: cell-based, Salmonella typhimurium; settings: Salmonella enterica
Description: as §1

[20] = test system: E. faecium VanA; assay: MIC broth microdilution, antibiotic resistant strain panel; assay type: cell-based; settings: Enterococcus faecium
Description: as §1, §2

[21] = test system: H. influenzae ATCC 49766; assay: MIC broth microdilution (NCCLS), fastidious bacteria; assay type: cell-based; settings: Haemophilus influenzae, ATCC49766, HTM, 5% CO2
Description: as §1

[22] = test system: H. influenzae ATCC 49247; assay: as above; assay type: cell-based; settings: Haemophilus influenzae, ATCC49247, HTM, 5% CO2
Description: as §1

[23] = test system: B. catarrhalis ATCC 8176; assay: Minimal Bactericidal Concentration (MBC); assay type: cell-based, Branhamella (Moraxella) catarrhalis; settings: Moraxella catarrhalis, ATCC8176, 99.9% killing
Description: (§3) Minimal Bactericidal Concentration (MBC). After the microtiter plates were read for the determination of the MIC, a 10-μl sample of each clear well (at least 5 wells without visible growth) was applied onto TSA plates for viable counts determination.
(§4) Petri dishes were incubated at 35° C. for exactly 24 h and bacterial colonies were counted.

[24] = test system: H. influenzae ATCC 49766; assay: Minimal Bactericidal Concentration (MBC); assay type: cell-based; settings: Haemophilus influenzae, ATCC49766, 99.9% killing
Description: as §3, §4

[25] = test system: B. catarrhalis ATCC 8176; assay: MIC broth microdilution (NCCLS), fastidious bacteria; assay type: cell-based, Branhamella (Moraxella) catarrhalis; settings: Moraxella catarrhalis, ATCC8176, HTM, 5% CO2
Description: as §1

[26] = test system: S. saprophyticus ATCC 15305; assay: Minimal Bactericidal Concentration (MBC); assay type: cell-based; settings: Staphylococcus saprophyticus, ATCC15305
Description: as §3, §4

[27] = Staphylococcus aureus, ATCC29213, S. aureus ATCC 29213, read-out: MIC
[28] = Staphylococcus epidermidis, ATCC12228, S. epidermidis ATCC 12228, read-out: MIC
[29] = Staphylococcus saprophyticus, ATCC15305, S. saprophyticus ATCC 15305, read-out: MIC
[30] = Enterococcus faecium, ATCC35667, E. faecium ATCC 35667, read-out: MIC
[31] = Enterococcus faecalis, ATCC29212, E. faecalis ATCC 29212, read-out: MIC
[32] = Staphylococcus aureus, read-out: MIC
[33] = Staphylococcus aureus, MRSA, S. aureus MRSA COL, read-out: MIC
[34] = Escherichia coli, ATCC25922, E. coli ATCC 25922 (Reference), read-out: MIC
[35] = multi-resistant E. faecium VanA, read-out: MIC

Gentamicin
MIC ([1]; E. coli ATCC 25922 (Reference)): 0.5 to 2 µg/mL
MIC ([2]; S. aureus ATCC 29213): 0.5 to 2 µg/mL
MIC ([3]; S. epidermidis ATCC 12228): 0.06 to 0.25 µg/mL
MIC ([4]; S. saprophyticus ATCC 15305): 0.06 µg/mL
MIC ([5]; E. faecium ATCC 35667): 4 to 16 µg/mL
MIC [6]: 32 µg/mL
MIC ([7]; E. faecalis ATCC 29212): 4 to 16 µg/mL
MIC [8]: 2 µg/mL
MIC [9]: >128 µg/mL
MIC [10]: 1 µg/mL
MIC [11]: >128 µg/mL
MIC [12]: >128 µg/mL
MIC [13]: 32 µg/mL
MIC [14]: 0.5 µg/mL
MIC [15]: 0.25 µg/mL
MIC [16]: 0.25 µg/mL
MIC [17]: 1 µg/mL
MIC ([18]; S. aureus MRSA COL): 0.5 µg/mL

Cc1onc(-c2ccccc2)c1C(=O)N[C@@H]1C(=O)N2[C@@H]1SC(C)(C)[C@@H]2C(=O)O [Oxacillin]
MIC [2, 27]: 0.12 to 0.25 µg/mL (≈ 0.299 to 0.623 µM)
MIC [3, 28]: 0.12 µg/mL (≈ 0.299 µM)
MIC [4, 29]: 1 µg/mL (≈ 2.49 µM)
MIC [5, 30]: 32 µg/mL (≈ 79.7 µM)
MIC [7, 31]: 8 to 16 µg/mL (≈ 19.9 to 39.9 µM)
MIC [9, 32]: 1020 µg/mL (≈ 2550 µM)
MIC [11, 32]: 512 µg/mL (≈ 1280 µM)
MIC [12, 32]: 512 µg/mL (≈ 1280 µM)
MIC [13, 32]: 128 µg/mL (≈ 319 µM)
MIC [14, 32]: 8 to 16 µg/mL (≈ 19.9 to 39.9 µM)
MIC [15, 32]: 32 to 64 µg/mL (≈ 79.7 to 159 µM)
MIC [16, 32]: 16 µg/mL (≈ 39.9 µM)
MIC [17, 32]: 16 to 32 µg/mL (≈ 39.9 to 79.7 µM)
MIC ([18]; Staphylococcus aureus, MRSA): > 128 µg/mL
MIC [18, 33]: 512 µg/mL (≈ 1280 µM)

O=C1OCCN1/N=C/c1ccc([N+](=O)[O-])o1 [Furazolidone]
MIC [19]: 2 µg/mL (≈ 8.88 µM)
MIC [1, 34]: 1 to 2 µg/mL (≈ 4.44 to 8.88 µM)
MIC [20, 35]: 64 µg/mL (≈ 284 µM)
MIC [2, 27]: 4 to 16 µg/mL (≈ 17.8 to 71.1 µM)
MIC [3, 28]: 2 to 4 µg/mL (≈ 8.88 to 17.8 µM)
MIC [4, 29]: 2 µg/mL (≈ 8.88 µM)
MIC ([5]; E. faecium ATCC 35667): >64 µg/mL
MIC [5, 30]: > 128 µg/mL
MIC ([6]; Acinetobacter baumannii, ATCC19606, read-out: MIC): 32 µg/mL (≈ 142 µM)
MIC [7, 31]: 8 to 16 µg/mL (≈ 35.5 to 71.1 µM)
MIC ([8]; Yersinia, ATCC23715, read-out: MIC): > 16 µg/mL
MIC [18, 33]: 8 µg/mL (≈ 35.5 µM)

CO/N=C(\C(=O)N[C@@H]1C(=O)N2C(C(=O)O)=C(CSc3nc(=O)c(=O)[nH]n3C)CS[C@H]12)c1csc(N)n1 [Ceftriaxone]
MIC [1, 34]: 0.03 to 0.06 µg/mL (≈ 0.0541 to 0.108 µM)
MIC [2, 27]: 2 µg/mL (≈ 3.61 µM)
MIC [3, 28]: 1 µg/mL (≈ 1.8 µM)
MIC [4, 29]: 8 µg/mL (≈ 14.4 µM)
MIC [5, 30]: 64 µg/mL (≈ 115 µM)
MIC [7, 31]: 8 µg/mL (≈ 14.4 µM)
MIC [18, 33]: 512 µg/mL (≈ 923 µM)

CC[C@H]1OC(=O)[C@H](C)[C@@H](O[C@H]2C[C@@](C)(OC)[C@@H](O)[C@H](C)O2)[C@H](C)[C@@H](O[C@@H]2O[C@H](C)C[C@H](N(C)C)[C@H]2O)[C@](C)(OC)C[C@@H](C)C(=O)[C@H](C)[C@@H](O)[C@]1(C)O [Clarithromycin]
MIC [20, 35]: > 128 µg/mL
MIC [21]: 128 µg/mL (≈ 171 µM)
MIC [22]: 16 µg/mL (≈ 21.4 µM)
MBC [23]: 1 µg/mL (≈ 1.34 µM)
MBC [24]: > 128 µg/mL
MIC [7, 31]: 16 µg/mL (≈ 21.4 µM)
MIC [25]: 0.5 µg/mL (≈ 0.668 µM)

CN[C@H](CC(C)C)C(=O)N[C@H]1C(=O)N[C@@H](CC(N)=O)C(=O)N[C@H]2C(=O)N[C@H]3C(=O)N[C@H](C(=O)N[C@H](C(=O)O)c4cc(O)cc(O)c4-c4cc3ccc4O)[C@H](O)c3ccc(c(Cl)c3)Oc3cc2cc(c3O[C@@H]2O[C@H](CO)[C@@H](O)[C@H](O)[C@H]2O[C@H]2C[C@](C)(N)[C@H](O)[C@H](C)O2)Oc2ccc(cc2Cl)[C@H]1O [Vancomycin]
MIC [20]: > 128 µg/mL
MIC ([2]; Staphylococcus aureus, ATCC29213): 0.5 to 2 µg/mL (≈ 0.345 to 1.38 µM)
MIC ([3]; Staphylococcus epidermidis, ATCC12228): 1 to 2 µg/mL (≈ 0.69 to 1.38 µM)
MIC ([4]; Staphylococcus saprophyticus, ATCC15305): 1 µg/mL (≈ 0.69 µM)
MIC ([5]; Enterococcus faecium, ATCC35667): 0.5 µg/mL (≈ 0.345 µM)
MBC [26]: 1 µg/mL (≈ 0.69 µM)
MIC ([7]; Enterococcus faecalis, ATCC29212): 2 µg/mL (≈ 1.38 µM)
MIC ([18]; Staphylococcus aureus, MRSA): 1 to 2 µg/mL (≈ 0.69 to 1.38 µM)
